In patent EP0548441A1, “Endothelin antagonists” (Japat Ltd, priority 1991, dated 1993):
Where a SMILES comes first, the peptide text is derived from it.

Key:
guinea pig trachea = test: Inhibition of the contraction of guinea pig trachea; type: cell-based; settings: guinea pig tracheal rings
Protocol: The contraction of the guinea pig trachea was measured according to Br. J. Pharmacol. 98, 483, l989, by the following procedure.
Male guinea pigs weighing 350 - 500 g were stunned and bled. The trachea was rapidly removed and placed in an oxygenated (95% O₂ , 5% CO₂) Krebs solution. After removal of the adherent fat and connective tissues, the trachea was cut into 2 mm wide rings. The two rings were tied together, end to end, placed in a 30 ml organ bath and connected to an isometric force-transducer under an initial tension of 1.0 g.

ETA receptor = molecular target: T1, ETA receptor (Sus scrofa, UniProt Q29010)
T1 sequence (Q29010 21-427): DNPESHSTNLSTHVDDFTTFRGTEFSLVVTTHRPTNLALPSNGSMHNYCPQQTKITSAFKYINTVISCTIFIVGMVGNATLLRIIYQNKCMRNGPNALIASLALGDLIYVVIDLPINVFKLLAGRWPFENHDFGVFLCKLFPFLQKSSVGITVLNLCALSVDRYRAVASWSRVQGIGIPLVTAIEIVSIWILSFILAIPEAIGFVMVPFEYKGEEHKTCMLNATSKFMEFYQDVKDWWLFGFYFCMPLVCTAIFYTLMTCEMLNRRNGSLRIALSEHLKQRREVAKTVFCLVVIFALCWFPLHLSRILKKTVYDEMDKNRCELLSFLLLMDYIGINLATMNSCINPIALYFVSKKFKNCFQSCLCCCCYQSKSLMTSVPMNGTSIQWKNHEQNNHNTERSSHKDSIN
Protocol: Porcine lung was homogenized with a Kinematica Polytron homogenizer (Lucern, Switzerland) three times at top speed for each 30 sec in 9 volumes of ice-cold 0.25 M sucrose solution containing 20 mM Tris-HCl (pH 7.4), 0.2 mM phenylmethylsulfonyl fluoride, 1 µM leupeptin, 1 µM pepstatin, 0.1 mM EDTA, and 0.5 mM EGTA. After centrifugation of the homogenate at 1,000 x g for 10 min at 4°C, the supernatant was centrifuged again at 20,000 x g for 20 min. The resulting pellet was washed three times as described above and used as a membrane source. The membrane was stocked in aliquots at -80°C until use.
ET-3 in the absence and presence of various amounts of nonlabeled ligands in a total volume of 1 ml of 20 mM HEPES (pH 7), 145 mM NaCl, 5 mM KCl, 3 mM MgCl₂ , 1 mM EGTA, 1 mg/ml bovine serum albumin, and 0.2 mg/ml bacitracin. […] The radioactivity in membrane pellet was measured in a gamma counter. Nonspecific binding was defined as membrane-associated radioactivity in the presence of saturating concentrations of ET(l00 nM). […] Total binding was always less than l5% of the total radioactivity added.
The specific binding site for ETs in the plasma membrane of porcine lung was detected. The binding to the ETA receptor was determined with [¹²⁵I]ET-1 in the presence of 1 nM unlabeled ET-3 and the binding to the ETB receptor was determined with [¹²⁵I]ET-3 alone. […]

SMILES	inhibition of ET-3-induced contraction of the trachea (guinea pig trachea; 100 nM, added 5 min prior to the addition of ET-3)	Ki (ETA receptor) [nM]	contraction of the trachea (guinea pig trachea; organ bath, high KCl (60 mM) as reference standard)
CC[C@H](C)[C@H](NC(=O)[C@H](CC(=O)O)NC(=O)[C@H](CC(C)C)NC(=O)[C@H](Cc1c[nH]cn1)NC(=O)[C@H](C)NC(=O)[C@H](Cc1ccccc1)NC(=O)[C@H](Cc1ccc(O)cc1)NC(=O)[C@@H](NC(=O)[C@H](C)NC(=O)[C@H](CCC(=O)O)NC(=O)[C@H](CCCCN)NC(=O)[C@H](CC(=O)O)NC(C)=O)C(C)C)C(=O)N[C@H](C(=O)N[C@@H](Cc1c[nH]c2ccccc12)C(=O)O)[C@@H](C)CC [Compound (II)] (Ac-DKEAVYFAHLDIIW-OH)	significantly inhibited	450	
CC[C@H](C)[C@H](NC(=O)[C@H](CC(=O)O)NC(=O)[C@H](CC(C)C)NC(=O)[C@H](Cc1c[nH]cn1)NC(=O)[C@@H]1CSSC[C@H](N)C(=O)N[C@@H]([C@@H](C)O)C(=O)N[C@H]2CSSC[C@H](NC(=O)[C@H](CCC(=O)O)NC(=O)[C@H](CCCCN)NC(=O)[C@H](CC(=O)O)NC(=O)[C@H](CCCCN)NC(=O)[C@H](Cc3ccc(O)cc3)NC(=O)[C@H]([C@@H](C)O)NC(=O)[C@H](Cc3ccccc3)NC2=O)C(=O)N[C@@H](C(C)C)C(=O)N[C@@H](Cc2ccc(O)cc2)C(=O)N[C@@H](Cc2ccc(O)cc2)C(=O)N1)C(=O)N[C@H](C(=O)N[C@@H](Cc1c[nH]c2ccccc12)C(=O)O)[C@@H](C)CC [ET-3, endothelin-3, reference compound]			caused a contraction of the trachea in a concentration dependent manner
